Measured values reported in patent publication US10407423B2, “Compounds as inhibitors of DNA methyltransferases” (FUNDACIÓN PARA LA INVESTIGACIÓN MÉDICA APLICADA, priority 2015, dated 2019).

Legend:
human G9a enzyme = human G9a enzyme (Homo sapiens (Human), UniProt Q96KQ7); test: G9a enzyme activity assay (TR-FRET); format: biochemical; conditions: 1 hour at room temperature
Protocol: G9a Enzyme Activity Assay
The biochemical assay to measure G9a enzyme activity relies on time-resolved fluorescence energy transfer (TR-FRET) between europium cryptate (donor) and XL665 (acceptor). TR-FRET is observed when biotinylated histone monomethyl-H3K9 peptide is incubated with cryptate-labeled anti-dimethyl-histone H3K9 antibody (CisBio Cat#61KB2KAE) and streptavidin XL665 (CisBio Cat#610SAXLA), after enzymatic reaction of G9a.
The human G9a enzyme expressed in a baculovirus infected Sf9 cell expression system was obtained from BPS Biosciences (Cat. #51001). Enzyme activity assay was carried out in a white 384-well plate in a final volume of 20 μl, as follow: • 4 μl of vehicle or studied compound 2.5× concentrated prepared in assay buffer (50 mM Tris-HCl, 10 mM NaCl, 4 mM DTT, 0.01% Tween-20 pH9). Final percentage of DMSO was 0.5%. • 2 μl of 1 nM G9a enzyme diluted in assay buffer. Final concentration was 0.2 nM. • Start the reaction by adding 4 μl of substrate mixture containing 20 μM S-adenosylmethionine and 40 nM biotinylated histone monomethyl-H3K9 peptide. • Reaction was carried out during 1 hour at room temperature. • Enzyme activity was stopped by adding 5 μl of cryptate-labeled anti-dimethyl-histone H3K9 antibody. Final concentration 150 nM. • Then, add 5 μl of streptavidin XL665 beads. Final concentration of 16 μM. • Read the plate after 1 hour of incubation at room temperature.
(§1) For each well, fluorescence was measured at 620 nm and 665 nm. A ratio (665 nm/620 nm) was then calculated in order to minimize medium interferences. Positive control was obtained in the presence of the vehicle of the compounds. Negative control was obtained in the absence of G9a enzyme activity. Calculated IC50 values were determined using GraphPrism using 4-parameters inhibition curve.

human DNMT1 = human DNMT1 (Homo sapiens (Human), UniProt P26358); test: DNMT1 enzyme activity assay (TR-FRET, EPIgeneous methyltransferase assay); format: biochemical; conditions: 15 minutes at 37° C.
Protocol: DNMT1 Enzyme Activity Assay
The biochemical assay to measure DNMT1 enzyme activity relies on time-resolved fluorescence energy transfer (TR-FRET) between lumi4-Tb (donor) and d2 (acceptor) using the EPlgeneous methyltransferase assay (CisBio Cat#62SAHPEB). TR-FRET is observed when antibody specific to S-adenosylhomocysteine labeled with Lumi4-Tb is incubated with d2-labeled S-adenosylhomocysteine. TR-FRET signal is inversely proportional to the concentration of SAH, product of DNMT1 enzyme activity, in the sample. The human DNMT1 was obtained from Reaction Biology Corp. (Cat# DMT-21-124).
Enzyme activity assay was carried out in a white 384-well plate in a final volume of 20 μl, as follow: • 4 μl of vehicle or studied compound 2.5× concentrated prepared in assay buffer (50 mM Tris-HCl, 1 mM EDTA, 1 mM DTT, 0.1% Triton X-100, 5% glycerol pH 7.5). Final percentage of DMSO was 0.5%. • 2 μl of […] DNMT1 enzyme diluted in assay buffer. Final concentration was 20 nM. • Start the reaction by adding 4 μl of substrate mixture containing 1 μM S-adenosylmethionine and 1 μM poly-deoxy inosine poly-deoxy cytosine (pdI-pdC) DNA. • Reaction was carried out during 15 minutes at 37° C. • Enzyme activity was stopped by adding 2 μl of buffer one of the EPIgeneous methyltransferase assay. • After 10 minutes at room temperature, it was added 4 μl of antibody specific to S-adenosylhomocysteine labeled with Lumi4-Tb 50× diluted in buffer two of the EPIgeneous methyltransferase assay. • Add 4 μl of d2-labeled S-adenosylhomocysteine 31× diluted in buffer two of the EPIgeneous methyltransferase assay. • Read the plate after 1 hour of incubation at room temperature.
as §1

[1] = test system: CEMO-1 cells (acute lymphocytic leukemia, ALL); test: Cell proliferation assay (CellTiter 96 Aqueous One), CEMO-1; format: cell-based; conditions: CEMO-1 (ALL), 48 hours of treatment
Protocol: (§2) Cell proliferation was analyzed after 48 hours of in vitro treatment using the CellTiter 96 Aqueous One Solution Cell Proliferation Assay (Promega, Madison, W). This is a colorimetric method for determining the number of viable cells in proliferation.
(§3) For the assay, suspension cells were cultured by triplicate at a density of 1×10^6 cells/ml in 96-well plates (100.000 cells/well, 100 μl/well), except for OCI-Ly3 and OCI-Ly10 cell lines which were cultured at a density of 0.5×10^6 cells/ml (50,000 cells/well, 100 μl/well) and for HepG2, Hep3B and PLC/PRF/5 cell lines which were cultured at a density of 3000 cells/well, 100 μl/well). Adherent cells were obtained from 80-90% confluent flasks and 100 μl of cells were seeded at a density of 5000 cells/well in 96-well plates by triplicate. Before addition of the compounds, adherent cells were allowed to attach to the bottom of the wells for 12 hours. In all cases, only the 60 inner wells were used to avoid any border effects.
(§4) After 48 hours of treatment, plates with suspension cells were centrifuged at 800 g for 10 minutes and medium was removed. The plates with adherent cells were flicked to remove medium. Then, cells were incubated with 100 μl/well of medium and 20 μl/well of CellTiter 96 Aqueous One Solution reagent. After 1-3 hours of incubation at 37° C., absorbance was measured at 490 nm in a 96-well plate reader. The background absorbance was measured in wells with only cell line medium and solution reagent. Data was calculated as a percentage of total absorbance of treated cell/absorbance of non treated cells.
(§5) These cancer cell lines and primary cultures correspond to acute lymphocytic leukemia (ALL), CEMO-1, to activated B-cell-like diffuse large B-cell lymphoma (ABC-DLBCL), OCI-Ly3 and OCI-Ly10 and to hepatocellular carcinoma cells (HCC), HepG2, Hep3B and PLC/PRF/5.

[2] = test system: Hep3B cells (hepatocellular carcinoma); test: Cell proliferation assay (CellTiter 96 Aqueous One), Hep3B; format: cell-based; conditions: Homo sapiens; Hep3B (HCC), 48 hours of treatment
Protocol: as §2, §3, §4, §5

[3] = test system: HepG2 cells (hepatocellular carcinoma); test: Cell proliferation assay (CellTiter 96 Aqueous One), HepG2; format: cell-based; conditions: Homo sapiens; HepG2 (HCC), 48 hours of treatment
Protocol: as §2, §3, §4, §5

Sequence of human G9a enzyme (Q96KQ7 whole entry): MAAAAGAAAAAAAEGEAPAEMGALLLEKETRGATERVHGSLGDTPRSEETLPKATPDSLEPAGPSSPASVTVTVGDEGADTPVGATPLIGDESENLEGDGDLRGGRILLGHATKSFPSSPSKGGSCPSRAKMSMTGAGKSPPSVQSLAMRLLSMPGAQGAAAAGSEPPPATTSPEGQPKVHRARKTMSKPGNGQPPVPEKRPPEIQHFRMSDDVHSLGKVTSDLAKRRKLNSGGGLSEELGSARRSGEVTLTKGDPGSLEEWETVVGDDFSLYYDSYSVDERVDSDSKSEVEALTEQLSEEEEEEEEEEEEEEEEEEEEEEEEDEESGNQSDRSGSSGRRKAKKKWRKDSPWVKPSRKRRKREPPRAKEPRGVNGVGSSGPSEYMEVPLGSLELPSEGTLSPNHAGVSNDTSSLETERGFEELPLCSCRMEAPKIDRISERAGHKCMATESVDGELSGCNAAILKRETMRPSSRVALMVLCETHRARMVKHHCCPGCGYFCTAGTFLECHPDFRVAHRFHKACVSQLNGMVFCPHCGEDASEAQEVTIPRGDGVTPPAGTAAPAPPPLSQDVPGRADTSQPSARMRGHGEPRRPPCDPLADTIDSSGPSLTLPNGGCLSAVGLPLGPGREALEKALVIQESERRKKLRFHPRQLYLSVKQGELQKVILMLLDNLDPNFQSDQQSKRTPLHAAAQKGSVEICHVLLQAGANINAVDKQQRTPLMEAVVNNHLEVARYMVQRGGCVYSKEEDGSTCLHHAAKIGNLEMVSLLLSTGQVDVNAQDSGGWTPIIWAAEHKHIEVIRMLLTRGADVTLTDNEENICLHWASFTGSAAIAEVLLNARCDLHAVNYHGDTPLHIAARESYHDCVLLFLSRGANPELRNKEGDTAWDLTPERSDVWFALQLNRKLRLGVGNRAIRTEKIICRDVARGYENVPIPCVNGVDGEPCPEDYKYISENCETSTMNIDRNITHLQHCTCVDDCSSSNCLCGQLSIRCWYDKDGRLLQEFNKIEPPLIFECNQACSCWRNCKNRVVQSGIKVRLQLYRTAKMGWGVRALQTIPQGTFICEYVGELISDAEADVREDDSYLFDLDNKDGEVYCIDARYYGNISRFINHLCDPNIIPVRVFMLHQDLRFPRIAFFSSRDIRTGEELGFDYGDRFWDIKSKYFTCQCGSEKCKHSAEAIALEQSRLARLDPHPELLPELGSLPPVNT
Sequence of human DNMT1 (P26358 whole entry): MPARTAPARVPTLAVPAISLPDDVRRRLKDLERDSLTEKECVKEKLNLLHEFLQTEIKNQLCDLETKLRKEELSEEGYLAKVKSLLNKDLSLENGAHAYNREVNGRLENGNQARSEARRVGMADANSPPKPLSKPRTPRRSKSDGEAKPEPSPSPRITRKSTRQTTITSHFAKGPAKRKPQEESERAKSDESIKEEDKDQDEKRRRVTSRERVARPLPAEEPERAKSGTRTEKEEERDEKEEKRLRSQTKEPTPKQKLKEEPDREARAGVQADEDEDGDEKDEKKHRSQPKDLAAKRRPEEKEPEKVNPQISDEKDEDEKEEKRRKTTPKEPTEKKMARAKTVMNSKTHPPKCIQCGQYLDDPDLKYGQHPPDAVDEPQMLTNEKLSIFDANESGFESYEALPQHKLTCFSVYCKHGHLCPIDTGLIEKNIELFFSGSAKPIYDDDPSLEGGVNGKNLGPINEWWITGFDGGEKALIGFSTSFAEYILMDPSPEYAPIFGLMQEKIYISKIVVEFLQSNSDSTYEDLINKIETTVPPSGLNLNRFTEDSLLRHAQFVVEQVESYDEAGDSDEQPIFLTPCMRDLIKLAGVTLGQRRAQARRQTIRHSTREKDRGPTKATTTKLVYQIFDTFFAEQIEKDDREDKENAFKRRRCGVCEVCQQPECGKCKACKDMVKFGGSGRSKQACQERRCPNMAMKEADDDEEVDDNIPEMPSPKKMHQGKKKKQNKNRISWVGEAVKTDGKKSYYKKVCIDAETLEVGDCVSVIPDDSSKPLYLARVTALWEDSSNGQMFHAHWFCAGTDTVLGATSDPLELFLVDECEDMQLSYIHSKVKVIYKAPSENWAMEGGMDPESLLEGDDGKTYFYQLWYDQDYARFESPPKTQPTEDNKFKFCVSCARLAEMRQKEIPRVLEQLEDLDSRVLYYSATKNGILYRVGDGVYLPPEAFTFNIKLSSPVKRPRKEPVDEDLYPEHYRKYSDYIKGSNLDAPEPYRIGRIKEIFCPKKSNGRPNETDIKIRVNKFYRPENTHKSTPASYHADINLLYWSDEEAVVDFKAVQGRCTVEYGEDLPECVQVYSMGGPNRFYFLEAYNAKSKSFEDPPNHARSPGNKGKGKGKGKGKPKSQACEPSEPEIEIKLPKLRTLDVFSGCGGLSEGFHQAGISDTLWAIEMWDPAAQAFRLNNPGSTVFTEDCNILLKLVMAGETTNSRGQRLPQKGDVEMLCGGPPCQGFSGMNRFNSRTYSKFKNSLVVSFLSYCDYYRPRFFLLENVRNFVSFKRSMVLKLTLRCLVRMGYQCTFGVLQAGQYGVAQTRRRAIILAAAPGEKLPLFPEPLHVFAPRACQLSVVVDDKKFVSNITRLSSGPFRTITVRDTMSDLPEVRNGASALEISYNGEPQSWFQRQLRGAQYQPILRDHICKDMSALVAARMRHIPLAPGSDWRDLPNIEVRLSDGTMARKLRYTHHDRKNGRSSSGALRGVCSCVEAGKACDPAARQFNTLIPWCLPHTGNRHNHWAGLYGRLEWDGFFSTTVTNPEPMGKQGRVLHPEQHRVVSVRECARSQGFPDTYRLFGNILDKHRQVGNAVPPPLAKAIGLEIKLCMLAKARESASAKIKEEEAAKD

COc1cc2c3c(c(-c4ccc(C)o4)nc2cc1OCCCN1CCCC1)CC[C@H](CC1CCN(C)CC1)N3 (single isomer, unassigned) [Compound 2-09]
IC50 (human G9a enzyme): < 0.1 µM | IC50 (human DNMT1): 0.5 to 1 µM

COc1cc2c3c(c(-c4ccc(C)o4)nc2cc1OCCCN1CCCC1)CC[C@@H](CC1CCN(C)CC1)N3 (single isomer, unassigned) [Compound 2-10]
IC50 (human G9a enzyme): < 0.1 µM | IC50 (human DNMT1): 0.5 to 1 µM

COc1cc2c(cc1OCCCN1CCCC1)nc(-c1ccccc1)c1cc(CC3CCN(C)CC3)[nH]c12 [Compound 1-05]
IC50 (human G9a enzyme): 0.1 to 0.5 µM | IC50 (human DNMT1): 0.5 to 1 µM

COc1cc2c(cc1OCCCN1CCCC1)nc(-c1cc(C)oc1C)c1cc(CC3CCN(C)CC3)[nH]c12 [Compound 1-06]
IC50 (human G9a enzyme): 0.5 to 1 µM | IC50 (human DNMT1): 1 to 10 µM

COc1ccc2c3c(c(-c4ccc(C)o4)nc2c1)CCCN3 [Compound 2-01, 8-methoxy-5-(5-methyl-2-furyl)-1,2,3,4-tetrahydrobenzo[h][1,6]naphthyridine]
IC50 (human G9a enzyme): > 10 µM | IC50 (human DNMT1): 1 to 10 µM

Cc1ccc(-c2nc3cc(OCCCN4CCCC4)ccc3c3c2CCCN3)o1 [Compound 2-02, 5-(5-methyl-2-furyl)-8-(3-pyrrolidin-1-ylpropoxy)-1,2,3,4-tetrahydrobenzo[h][1,6]naphthyridine]
IC50 (human G9a enzyme): 1 to 10 µM | IC50 (human DNMT1): 0.5 to 1 µM

COc1cc2c3c(c(-c4ccc(C)o4)nc2cc1OCCCN1CCCC1)CCCN3 [Compound 2-03, 9-methoxy-5-(5-methyl-2-furyl)-8-(3-pyrrolidin-1-ylpropoxy)-1,2,3,4-tetrahydrobenzo[h][1,6]naphthyridine]
GI50 [1]: 1 to 10 µM | IC50 (human G9a enzyme): < 0.1 µM | IC50 (human DNMT1): 1 to 10 µM

COc1cc2c3c(c(-c4ccc(C)o4)nc2cc1OCCCN1CCCC1)CCCN3CCCN1CCCC1 [Compound 2-04, 9-methoxy-5-(5-methyl-2-furyl)-8-(3-pyrrolidin-1-ylpropoxy)-1-(3-pyrrolidin-1-ylpropyl)-3,4-dihydro-2H-benzo[h][1,6]naphthyridine]
IC50 (human G9a enzyme): > 10 µM | IC50 (human DNMT1): 0.5 to 1 µM

COc1cc2c3c(c(-c4ccc(C)o4)nc2cc1OCCCN1CCCC1)CCC(CC1CCNCC1)N3 (stereo not drawn) [Compound 2-05, 9-methoxy-5-(5-methyl-2-furyl)-2-(4-piperidylmethyl)-8-(3-pyrrolidin-1-ylpropoxy)-1,2,3,4-tetrahydrobenzo[h][1,6]naphthyridine]
IC50 (human G9a enzyme): < 0.1 µM | IC50 (human DNMT1): 0.5 to 1 µM

COc1cc2c3c(c(-c4ccc(C)o4)nc2cc1OCCCN1CCCC1)CCC(CC1CCN(C(C)=O)CC1)N3 (stereo not drawn) [Compound 2-11, 1-[4-[[9-methoxy-5-(5-methyl-2-furyl)-8-(3-pyrrolidin-1-ylpropoxy)-1,2,3,4-tetrahydrobenzo[h][1,6]naphthyridin-2-yl]methyl]-1-piperidyl]ethanone]
IC50 (human G9a enzyme): < 0.1 µM | IC50 (human DNMT1): 1 to 10 µM

COc1cc2c3c(c(-c4ccc(C)o4)nc2cc1OCCCN1CCCC1)CCC(CC1CCN(C2CCCCC2)CC1)N3 (stereo not drawn) [Compound 2-12, 2-[(1-cyclohexyl-4-piperidyl)methyl]-9-methoxy-5-(5-methyl-2-furyl)-8-(3-pyrrolidin-1-ylpropoxy)-1,2,3,4-tetrahydrobenzo[h][1,6]naphthyridine]
GI50 [2]: 0.1 to 1 µM | GI50 [3]: 0.1 to 1 µM | GI50 [1]: 0.1 to 1 µM | IC50 (human G9a enzyme): < 0.1 µM | IC50 (human DNMT1): 0.5 to 1 µM

COc1cc2c3c(c(-c4cc(C)oc4C)nc2cc1OCCCN1CCCC1)CCC(CC1CCN(C)CC1)N3 (stereo not drawn) [Compound 2-13, 9-methoxy-5-(2,5-dimethyl-3-furyl)-2-[(1-methyl-4-piperidyl)methyl]-8-(3-pyrrolidin-1-ylpropoxy)-1,2,3,4-tetrahydrobenzo[h][1,6]naphthyridine]
IC50 (human G9a enzyme): < 0.1 µM | IC50 (human DNMT1): 1 to 10 µM

COc1cc2c(cc1OCCCN1CCCC1)nc(-c1ccc(C)o1)c1cccnc12 [Compound 3-01, 9-methoxy-5-(5-methyl-2-furyl)-8-(3-pyrrolidin-1-ylpropoxy)benzo[h]-[1,6]naphthyridine]
IC50 (human G9a enzyme): 1 to 10 µM | IC50 (human DNMT1): 1 to 10 µM

COc1cc2c(cc1OCCCN1CCCC1)nc(-c1ccc(C)o1)c1ccc(CC3CCNCC3)nc12 [Compound 3-02, 9-methoxy-5-(5-methyl-2-furyl)-2-(4-piperidylmethyl)-8-(3-pyrrolidin-1-ylpropoxy)benzo[h][1,6]naphthyridine]
IC50 (human G9a enzyme): 0.1 to 0.5 µM | IC50 (human DNMT1): 0.5 to 1 µM

COc1cc2c(cc1OCCCN1CCCC1)nc(-c1ccc(C)o1)c1ccc(CC3CCN(C)CC3)nc12 [Compound 3-03, 9-methoxy-5-(5-methyl-2-furyl)-2-[(1-methyl-4-piperidyl)methyl]-8-(3-pyrrolidin-1-ylpropoxy)benzo[h][1,6]naphthyridine]
IC50 (human G9a enzyme): < 0.1 µM | IC50 (human DNMT1): 1 to 10 µM

COc1cc2c(cc1OCCCN1CCCC1)nc(-c1cc(C)oc1C)c1ccc(CC3CCN(C)CC3)nc12 [Compound 3-04, 9-methoxy-5-(2,5-dimethyl-3-furyl)-2-[(1-methyl-4-piperidyl)methyl]-8-(3-pyrrolidin-1-ylpropoxy)benzo[h][1,6-]naphthyridine]
IC50 (human G9a enzyme): 0.1 to 0.5 µM | IC50 (human DNMT1): > 10 µM

COc1cc2c(cc1OCCCN1CCCC1)nc(-c1ccc(C)o1)c1c(=O)n(C3CCN(C)CC3)[nH]c12 [Compound 4-03, 8-methoxy-4-(5-methyl-2-furyl)-2-(1-methyl-4-piperidyl)-7-(3-pyrrolidin-1-ylpropoxy)-1H-pyrazolo[4,3-c]quinolin-3-one]
IC50 (human G9a enzyme): > 10 µM | IC50 (human DNMT1): 1 to 10 µM

COc1cc2c(cc1OCCCN1CCCC1)nc(-c1ccc(C)o1)c1c(=O)n(CC3CCN(C)CC3)[nH]c12 [Compound 4-04, 8-methoxy-4-(5-methyl-2-furyl)-2-[(1-methyl-4-piperidyl)methyl]-7-(3-pyrrolidin-1-ylpropoxy)-1H-pyrazolo[4,3-c]quinolin-3-one]
IC50 (human G9a enzyme): > 10 µM | IC50 (human DNMT1): 1 to 10 µM

COc1cc2c(cc1OCCCN1CCCC1)nc(-c1ccc(C)o1)c1c(=O)n(CC3CCN(C)CC3)n(CC3CCN(C)CC3)c12 [Compound 4-05, 8-methoxy-4-(5-methyl-2-furyl)-1,2-bis[(1-methyl-4-piperidyl)methyl]-7-(3-pyrrolidin-1-ylpropoxy)pyrazolo[4,3-c]quinolin-3-one]
IC50 (human G9a enzyme): > 10 µM | IC50 (human DNMT1): 1 to 10 µM
